Biological target: PD-1/PD-L1 (Homo sapiens (Human), UniProt Q9NZQ7)
Test: PD-1/PD-L1 Binding Assay (Alphascreen)
Outline: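 PD-1/PD-L1 binding detected by anti-6×His acceptor and streptavidin donor beads after 120 min in the dark at 25 °C. Beforehand, the two proteins were incubated 15 min at 25 °C with inhibitor at 0.015–300 nM (1% DMSO). IC50 comes from a log concentration–response curve.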

Sequence of PD-1/PD-L1 (Q9NZQ7 19-238): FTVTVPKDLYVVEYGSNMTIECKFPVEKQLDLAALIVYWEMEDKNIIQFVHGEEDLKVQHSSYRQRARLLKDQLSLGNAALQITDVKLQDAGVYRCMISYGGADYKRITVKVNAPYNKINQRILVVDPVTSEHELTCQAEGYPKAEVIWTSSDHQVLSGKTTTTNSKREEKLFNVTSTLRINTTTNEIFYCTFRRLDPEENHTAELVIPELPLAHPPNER

IC50 (range symbols) [nM] | IC50 (numeric values) [nM] | SMILES
0.1 to 5 | – | COc1nc(-c2cccc(-c3cccc(-c4nc5cc(CN6CCC[C@H]6C(=O)O)c(OC(F)F)cc5o4)c3C)c2C)ccc1CN1CCC[C@@H]1C [Example 277, ((6-(difluoromethoxy)-2-(3′-(6-methoxy-5-(((S)-2-methylpyrrolidin-1-yl)methyl)pyridin-2-yl)-2,2′-dimethyl-[1,1′-biphenyl]-3-yl)benzo[d]oxazol-5-yl)methyl)-L-proline]
– | 0.99 | Cc1c(-c2ccc(CNCCO)c(F)c2)cccc1-c1cccc(-c2nc3cc(CN4CCC[C@H]4C(=O)O)c(OC(F)F)cc3o2)c1C [Example 239, ((6-(difluoromethoxy)-2-(3″-fluoro-4″-(((2-hydroxyethyl)amino)methyl)-2,2′-dimethyl-[1,1′:3′,1″-terphenyl]-3-yl)benzo[d]oxazol-5-yl)methyl)-L-proline]
0.1 to 5 | – | Cc1c(-c2nc3cc(CN4CCC[C@H]4C(=O)O)c(OC(F)F)cc3o2)cccc1-c1cccc(-c2nc3cc(CN4CC5(CCC(=O)N5)C4)cc(C#N)c3o2)c1C [Example 151, ((2-(3′-(7-cyano-5-((6-oxo-2,5-diazaspiro[3.4]octan-2-yl)methyl)benzo [d]oxazol-2-yl)-2,2′-dimethyl-[1,1′-biphenyl]-3-yl)-6-(difluoromethoxy)benzo[d]oxazol-5-yl)methyl)-L-proline]
– | 0.91 | Cc1c(-c2nc3cc(CN4CC[C@@H]4CO)c(OC(F)F)cc3o2)cccc1-c1cccc(-c2nc3cc(CN4CCC[C@H]4C(=O)O)c(OC(F)F)cc3o2)c1C [Example 35, ((6-(difluoromethoxy)-2-(3′-(6-(difluoromethoxy)-5-(((R)-2-(hydroxymethyl)azetidin-1-yl)methyl)benzo[d]oxazol-2-yl)-2,2′-dimethyl-[1,1′-biphenyl]-3-yl)benzo[d]oxazol-5-yl)methyl)-L-proline]
– | 5.2 | Cc1c(-c2c[nH]c([C@@H]3CCCN3)n2)cccc1-c1cccc(-c2nc3cc(CN4CCC[C@H]4C(=O)O)c(OC(F)F)cc3o2)c1C [Example 247, ((6-(difluoromethoxy)-2-(2,2′-dimethyl-3′-(2-((S)-pyrrolidin-2-yl)-1H-imidazol-4-yl)-[1,1′-biphenyl]-3-yl)benzo[d]oxazol-5-yl)methyl)-L-proline]
0.1 to 5 | – | Cc1c(-c2nc3cc(CN4CC5(CCNCC5)C4)c(OC(F)F)cc3o2)cccc1-c1cccc(-c2nc3cc(CN4CCC[C@H]4C(=O)O)c(OC(F)F)cc3o2)c1C [Example 51, ((2-(3′-(5-((2,7-diazaspiro[3.5]nonan-2-yl)methyl)-6-(difluoromethoxy)benzo[d]oxazol-2-yl)-2,2′-dimethyl-[1,1′-biphenyl]-3-yl)-6-(difluoromethoxy)benzo[d]oxazol-5-yl)methyl)-L-proline]
0.1 to 5 | – | COc1nc(-c2cccc(-c3cccc(-c4nc5cc(CN6CCC[C@H]6C(=O)O)c(OC(F)F)cc5o4)c3C)c2C)ccc1CN1CC(C)(C)C1 [Example 271, ((6-(difluoromethoxy)-2-(3′-(5-((3,3-dimethylazetidin-1-yl)methyl)-6-methoxypyridin-2-yl)-2,2′-dimethyl-[1,1′-biphenyl]-3-yl)benzo[d]oxazol-5-yl)methyl)-L-proline]
– | 1.1 | Cc1c(-c2nc3cc(CNCCO)c(OCc4cncc(C#N)c4)cc3o2)cccc1-c1cccc(-c2nc3cc(CN4CCC[C@H]4C(=O)O)c(OC(F)F)cc3o2)c1C [Example 120, ((2-(3′-(6-((5-cyanopyridin-3-yl)methoxy)-5-(((2-hydroxyethyl)amino)methyl)benzo[d]oxazol-2-yl)-2,2′-dimethyl-[1,1′-biphenyl]-3-yl)-6-(difluoromethoxy)benzo[d]oxazol-5-yl)methyl)-L-proline]
0.1 to 5 | – | Cc1c(-c2ccc3c(c2)CN(CCC(=O)O)C3)cccc1-c1cccc(-c2nc3cc(CN4CCC[C@H]4C(=O)O)c(OC(F)F)cc3o2)c1C [Example 290, ((2-(3′-(2-(2-carboxyethyl)isoindolin-5-yl)-2,2′-dimethyl-[1,1′-biphenyl]-3-yl)-6-(difluoromethoxy)benzo[d]oxazol-5-yl)methyl)-L-proline]
0.1 to 5 | – | Cc1c(-c2nc3cc(CN4CCC[C@@H]4C(=O)O)c(OC(F)F)cc3o2)cccc1-c1cccc(-c2nc3cc(CN4CCC(C#N)C4)cc(C#N)c3o2)c1C (stereo partly drawn) [Example 143, ((2-(3′-(7-cyano-5-((3-cyanopyrrolidin-1-yl)methyl)benzo[d]oxazol-2-yl)-2,2′-dimethyl-[1,1′-biphenyl]-3-yl)-6-(difluoromethoxy)benzo[d]oxazol-5-yl)methyl)-D-proline]
– | 0.19 | Cc1c(-c2nc3cc(CN4CCC4(C)O)ccc3o2)cccc1-c1cccc(-c2nc3cc(CN4CCC[C@H]4C(=O)O)c(OC(F)F)cc3o2)c1C (stereo partly drawn) [Example 104, ((6-(difluoromethoxy)-2-(3′-(5-((2-hydroxy-2-methylazetidin-1-yl)methyl)benzo[d]oxazol-2-yl)-2,2′-dimethyl-[1,1′-biphenyl]-3-yl)benzo[d]oxazol-5-yl)methyl)-L-proline]
5 to 50 | – | CC1(C)CN(Cc2cc3nc(-c4cccc(-c5cccc(-c6nc7cc(CN8CCC[C@H]8C(=O)O)c(OC(F)F)cc7o6)c5C#N)c4C#N)oc3cc2OC(F)F)C1 [Example 83, ((2-(2,2′-dicyano-3′-(6-(difluoromethoxy)-5-((3,3-dimethylazetidin-1-yl)methyl)benzo[d]oxazol-2-yl)-[1,1′-biphenyl]-3-yl)-6-(difluoromethoxy)benzo[d]oxazol-5-yl)methyl)-L-proline]
– | 0.3 | Cc1c(-c2nc3cc(CN[C@@H]4CCC[C@@H]4O)c(OC(F)F)cc3o2)cccc1-c1cccc(-c2nc3cc(CN4CCC[C@H]4C(=O)O)c(OC(F)F)cc3o2)c1C [Example 25, ((6-(difluoromethoxy)-2-(3′-(6-(difluoromethoxy)-5-((((1R,2S)-2-hydroxycyclopentyl)amino)methyl)benzo[d]oxazol-2-yl)-2,2′-dimethyl-[1,1′-biphenyl]-3-yl)benzo[d]oxazol-5-yl)methyl)-L-proline]
– | 2.3 | Cc1c(-c2nc3c(o2)CCN(CC(=O)O)C3)cccc1-c1cccc(-c2nc3cc(CN4CCC[C@H]4C(=O)O)c(OC(F)F)cc3o2)c1C [Example 184, ((2-(3′-(5-(carboxymethyl)-4,5,6,7-tetrahydrooxazolo[4,5-c]pyridin-2-yl)-2,2′-dimethyl-[1,1′-biphenyl]-3-yl)-6-(difluoromethoxy)benzo[d]oxazol-5-yl)methyl)-L-proline]
0.1 to 5 | – | Cc1c(-c2nc3c(o2)CCN(C(C)C(=O)O)C3)cccc1-c1cccc(-c2nc3cc(CN4CCC[C@H]4C(=O)O)c(OC(F)F)cc3o2)c1C (stereo partly drawn) [Example 186, ((2-(3′-(5-(1-carboxyethyl)-4,5,6,7-tetrahydrooxazolo[4,5-c]pyridin-2-yl)-2,2′-dimethyl-[1,1′-biphenyl]-3-yl)-6-(difluoromethoxy)benzo[d]oxazol-5-yl)methyl)-L-proline]
0.1 to 5 | – | Cc1c(-c2nc3c(o2)CCN(CCC(=O)O)C3)cccc1-c1cccc(-c2nc3cc(CN4CCC[C@H]4C(=O)O)c(OC(F)F)cc3o2)c1C [Example 187, ((2-(3′-(5-(2-carboxyethyl)-4,5,6,7-tetrahydrooxazolo[4,5-c]pyridin-2-yl)-2,2′-dimethyl-[1,1′-biphenyl]-3-yl)-6-(difluoromethoxy)benzo[d]oxazol-5-yl)methyl)-L-proline]
0.1 to 5 | – | COc1nc(-c2cccc(-c3cccc(-c4nc5cc(CN6CCC[C@H]6C(=O)O)c(OC(F)F)cc5o4)c3C)c2C)ccc1CN1CCC[C@H]1C [Example 279, ((6-(difluoromethoxy)-2-(3′-(6-methoxy-5-(((R)-2-methylpyrrolidin-1-yl)methyl)pyridin-2-yl)-2,2′-dimethyl-[1,1′-biphenyl]-3-yl)benzo[d]oxazol-5-yl)methyl)-L-proline]
– | 0.82 | Cc1c(-c2nc3cc(CN[C@@H]4CCC[C@@H]4O)ccc3o2)cccc1-c1cccc(-c2nc3cc(CN4CCC[C@H]4C(=O)O)c(OC(F)F)cc3o2)c1C [Example 99, ((6-(difluoromethoxy)-2-(3′-(5-((((1R,2S)-2-hydroxycyclopentyl)amino)methyl)benzo[d]oxazol-2-yl)-2,2′-dimethyl-[1,1′-biphenyl]-3-yl)benzo[d]oxazol-5-yl)methyl)-L-proline]
– | 6.9 | Cc1c(-c2ccc(CN3CCCC3)c(Cl)c2)cccc1-c1cccc(-c2nc3cc(CN4CCC[C@H]4C(=O)O)c(OC(F)F)cc3o2)c1C [Example 229, ((2-(3″-chloro-2,2′-dimethyl-4″-(pyrrolidin-1-ylmethyl)-[1,1′:3′,1″-terphenyl]-3-yl)-6-(difluoromethoxy)benzo[d]oxazol-5-yl)methyl)-L-proline]
5 to 50 | – | Cc1c(Nc2cc(CN3CCCC3)ccn2)cccc1-c1cccc(-c2nc3cc(OC(F)F)c(CN4CCC[C@H]4C(=O)O)cc3o2)c1C [Example 183, ((5-(difluoromethoxy)-2-(2,2′-dimethyl-3′-((4-(pyrrolidin-1-ylmethyl)pyridin-2-yl)amino)-[1,1′-biphenyl]-3-yl)benzo[d]oxazol-6-yl)methyl)-L-proline]
0.1 to 5 | – | Cc1c(-c2nc3cc(CN4CC(C)(CO)C4)c(OC(F)F)cc3o2)cccc1-c1cccc(-c2nc3cc(CN4CCC[C@H]4C(=O)O)c(OC(F)F)cc3o2)c1C [Example 78, ((6-(difluoromethoxy)-2-(3′-(6-(difluoromethoxy)-5-((3-(hydroxymethyl)-3-methylazetidin-1-yl)methyl)benzo[d]oxazol-2-yl)-2,2′-dimethyl-[1,1′-biphenyl]-3-yl)benzo[d]oxazol-5-yl)methyl)-L-proline]
5 to 50 | – | Cc1c(-c2ccc(CN3CCCC3)c(=O)[nH]2)cccc1-c1cccc(-c2nc3cc(CN4CCC[C@H]4C(=O)O)c(OC(F)F)cc3o2)c1C [Example 267, ((6-(difluoromethoxy)-2-(2,2′-dimethyl-3′-(6-oxo-5-(pyrrolidin-1-ylmethyl)-1,6-dihydropyridin-2-yl)-[1,1′-biphenyl]-3-yl)benzo[d]oxazol-5-yl)methyl)-L-proline]
